Data: US12083187B2, “Method of treatment for solid tumors containing hypoxia and/or stroma features” (Wayne State University, priority 2017, dated 2024)
Where “and” joins values, the source holds several entries; their conditions need not be identical. Equal entries are not always repeated.

Assays:
[1] = cited from earlier work
[2] = tested on: A498 wild type; conditions: for Combination Index (Cl) Drug + CFM4.16: A498 wild type, non-encapsulated drug combined with non-encapsulated CFM4.16, MTT, CompuSyn, CI<1 synergistic
Experimental: (§1) Cell Viability Assays. […] After treatment, an MTT assay was performed.
(§2) In vitro cytotoxicity assay. […] First, the cells were seeded in a 96-well multiwell plate at a density of 5×10^3 cells per well. The cells were allowed to grow in fresh culture media overnight. CAIX-positive and CAIX-negative cells were generated by parallel treatments with hypoxia and normoxia as described above. After 20 h, the medium was removed, and the wells were washed twice with PBS. […] After treatment, an MTT assay was performed.
(§3) RCC is very difficult to treat as the cells are mostly resistant to many current therapies. […] First, we determined cytotoxicity of individual drugs C4.16, Sor, and Evr in both A498. […] In order to understand the safety of combination therapy, we performed the hemolysis assay using CAIX-C4.16 and combination of CAIX-C4.16+Sor.

[3] = tested on: A498 Everolimus resistant type; conditions: for Combination Index (Cl) Drug + CFM4.16: A498 Everolimus resistant type, drug combined with CFM4.16, MTT, CompuSyn
Experimental: Generation of Everolimus-resistant RCC cells.
as §1, §2, §3

[4] = tested on: A498 RCC cell-derived xenografts; assay: A498 RCC cell-derived xenograft efficacy study in SCID mice; assay type: in vivo, mouse; conditions: intravenous, 30 mg/kg/day
Experimental: A dose of 30 mg/kg/day of this preparation was administered by intravenous (tail vein) injections for a total dose of 482 mg/kg in SCID mice bearing […]. […] In addition, after the completion of the animal experiment, tumors from treatment and control groups were dissected, and cryosectioned for imaging of apoptotic signs using TUNEL (Terminal deoxynucleotidyl transferase dUTP nick end labeling) and CARP-1.
For efficacy studies, after a suitable period of acclimation, a suspension of 1×10^6 A498 RCC cells in 200 μl of serum-free Hank's balanced salt solution were subcutaneously implanted in flanks of each animal using a 27-gauge needle. Tumors were allowed to grow unperturbed for 10-14 days. When tumors became palpable (200 mm^3), the mice were randomly assigned to treatment or control groups of eight animals each. […] The end points for assessing antitumor activity consisted of tumor weight, tumor growth inhibition (% T/C), and tumor cell kill Log10. Tumor weight (mg)=(A×B2)/2 where A and B are the tumor length and width (in mm), respectively. Tumor growth inhibition (T/C) was the median tumor weight in the treated group (T) when the median tumor weight in the control group reached 750 mg. Results were expressed as percentage. […] Tumor volumes were calculated by the modified ellipsoidal formula. […]

[5] = tested on: AKT activity (pAKT); assay: Western blot of AKT activation in WT and Evr-res A498 cells; assay type: cell-based, human; conditions: vs untreated control
Experimental: Western Blot analysis. For protein expression analysis, western blot experiments were conducted. The RCC cells were treated with DMSO/Vehicle (Control) for the indicated doses and times of the noted compound, and were lysed to prepare protein extracts. Cells were harvested and lysed in RIPA buffer (50 mM Tris-HCl, pH 8.0, 150 mM sodium chloride, 1.0% NP-40, 0.5% sodium deoxycholate, 0.1% sodium dodecyl sulfate (SDS), and 0.1% of protease inhibitor cocktail) for 20 min at 4° C. The lysates were then centrifuged at 14,000 rpm at 4° C. for 15 min to remove debris. The protein concentrations of whole cell lysates were then determined using the Protein Assay Kit. Supernatant proteins, 50 μg from each sample, were separated by SDS-10% polyacrylamide gel electrophoresis (SDS-PAGE) and transferred to polyvinylidene difluoride (PVDF) membrane (Bio-Rad, Hercules, CA) by standard procedures. The membranes were hybridized with primary antibodies followed by incubation with appropriate secondary antibodies. […]
Mechanism of C4.16 for overcoming drug resistance. In this study, we determined how induction of apoptosis and inhibition of oncogenic survival signaling would reinforce the synergistic cell killing and reversal of drug resistance in VVT and Evr-res A498 cells when treated with CA IX C4.16+Sor. […]

[6] = tested on: caspase-3/7; assay: Caspase 3/7 assay in Evr-res A498 cells; assay type: cell-based, human; conditions: RCC cells, vs control
[7] = tested on: OUK262 wild type; assay: MTT / CompuSyn combination index in OUK262 wild type RCC cells; conditions: drug combined with CFM4.16
Experimental: (§4) Cell Viability Assays. […] First, 5×10^3 cells were seeded in a 96-well plate in triplicate and allowed to grow in fresh culture media for another 24 h. Cells were then treated with respective agents for the noted doses and times. Control cells were treated with 0.1% DMSO in culture medium. After treatment, an MTT assay was performed. Briefly, 20 μL of 1 mg/ml of MTT was added to each well and cells were incubated for 2-4 h at 37° C. MTT was removed, and the resulting formazan products were dissolved by adding 50 μl DMSO/well followed by colorimetric analysis using a multi-label plate reader at 570 nm (Victor3; PerkinElmer, Wellesley, MA).
(§5) All the clinically drugs were treated in combination with CFM4.16 with a range of concentrations using MTT assay in the specified RCC cell line, and the data were feed to CompuSyn program to obtain the CI-value.

[8] = tested on: OUK262 Everolimus resistant type; assay: MTT / CompuSyn combination index in Everolimus resistant OUK262 RCC cells; conditions: drug combined with CFM4.16
Experimental: as §4, §5

[9] = tested on: Evr-res A498 tumor; conditions: mouse, in vivo
Experimental: In Vivo Imaging Studies. S0456 a reactive near-infra-red fluorochrome, was covalently linked with PLNPs and used for in vivo near-IR optical imaging of selected nanoparticle formulations. The formulations were injected intravenously in female nude mice bearing tumor xenografts. The distribution and tumor targeted delivery were imaged by tracking the fluorescent output of IRDye 800® with in vivo Imaging System (see FIG. 11).
PDX animal imaging and bio-distribution of CAIX-targeted-nanoformulation. A CAIX-targeted-nanomicelles conjugated with Near-infrared dye was administered directly via iv administration to 5-weeks old NCR SCID mice and the distribution behavior in the mice was monitored at different time points after administration using an in vivo imaging system.
To ascertain core penetrating ability of CA IX-S0456 in a drug resistant tumor model, we performed three transverse sectioning of the isolated tumor after the bio-D study.

[10] = tested on: RCC; conditions: cited from earlier work; for progression free survival: RCC, clinical

| Molecule | Combination Index (Cl) Drug + CFM4.16 [2] | Combination Index (Cl) Drug + CFM4.16 [3] | Combination Index (Cl) Drug + CFM4.16 [7] | Combination Index (Cl) Drug + CFM4.16 [8] | other results |
| --- | --- | --- | --- | --- | --- |
| COc1cc2nccc(Oc3ccc(NC(=O)C4(C(=O)Nc5ccc(F)cc5)CC4)cc3)c2cc1OC [CB, cabozantinib] |  |  |  |  | well tolerated dose ([1]; mouse, in vivo): 60 mg/kg |
| O=C1N(Cc2ccccc2Cl)c2ccccc2C12NN=C(c1cccc(Cl)c1)S2 (stereo not drawn) [CFM-4.16] |  |  |  |  | growth inhibition (in vitro cytotoxicity, comparison) [2]: more effective in inhibiting growth of WT and Evr-res A498 compared with Sor; growth inhibition (in vitro cytotoxicity, comparison) [3]: more effective in inhibiting growth of WT and Evr-res A498 compared with Sor; tumor growth / tumor size [4]: failed to inhibit tumor growth; AKT activity (pAKT) [5]: downregulation of pAKT; caspase-3/7 activity [6]: induced caspase-3/7 activation; loss in body weight ([1]; 30 mg/kg/day iv, total dose 482 mg/kg, DMSO/cremophor preparation, SCID mice): < 2% and 1.6%; MTD ([1]; mouse, in vivo): 30 mg/kg |
| CC(C)(C)c1nc(-c2cccc(NS(=O)(=O)c3c(F)cccc3F)c2F)c(-c2ccnc(N)n2)s1 [Dabrafenib] | 0.1385 | 0.677 | 0.234 | 0.587 |  |
| CO[C@H]1C[C@@H]2CC[C@@H](C)[C@@](O)(O2)C(=O)C(=O)N2CCCC[C@H]2C(=O)O[C@H]([C@H](C)C[C@@H]2CC[C@@H](OCCO)[C@H](OC)C2)CC(=O)[C@H](C)/C=C(\C)[C@@H](O)[C@@H](OC)C(=O)[C@H](C)C[C@H](C)/C=C/C=C/C=C/1C [Everolimus] | 0.7 | 1.3 | 0.67 | 1.45 | growth inhibition (in vitro cytotoxicity, comparison) [3]: did not inhibit growth |
| O=C(c1cc(Cc2n[nH]c(=O)c3ccccc23)ccc1F)N1CCN(C(=O)C2CC2)CC1 [Olaparip] | 1.0978 | 1.121 | 0.9878 | 1.312 |  |
| CC(=O)c1c(C)c2cnc(Nc3ccc(N4CCNCC4)cn3)nc2n(C2CCCC2)c1=O [Palbociclib] | 0.7 | 0.971 | 0.897 | 1.0023 |  |
| CC1(C)C(/C=C/C2=C(Cl)C(=C/C=C3/N(CCCCS(=O)(=O)[O-])c4ccc(S(=O)(=O)[O-])cc4C3(C)C)/CCC2)=[N+](CCCCS(=O)(=O)[O-])c2ccc(S(=O)(=O)[O-])cc21.[Na+].[Na+].[Na+] [S0456] |  |  |  |  | tumor accumulation / selectivity [9]: poor tumor accumulation with high off-target activity |
| CNC(=O)c1cc(Oc2ccc(NC(=O)Nc3ccc(Cl)c(C(F)(F)F)c3)cc2)ccn1 [Sorafenib] |  |  |  |  | AKT activity (pAKT) [5]: downregulation of pAKT; progression free survival [10]: 12 months |
| Nivolumab: immune-check point inhibitor (anti-PD1) approved for RCC |  |  |  |  | response rate, higher than Evr ([10]; RCC patients): 5%; progression free survival [10]: 32 months |
